Measured values as given in the kinase profiling compilation of Christmann-Franck et al. (2016).

Legend:
[1] = target: PIM2 (human) (UniProt Q9P1W9); experiment: SelectScreen, TR FRET
[2] = target: PIM1 (human) (UniProt P11309); experiment: SelectScreen, TR FRET
[3] = target: MAPK9 (human) (UniProt P45984); experiment: KINOMEscan competition binding; settings: compound 10.0 µM
[4] = target: CSNK2A2 (human) (UniProt P19784); experiment: KINOMEscan competition binding; settings: compound 10.0 µM
[5] = target: RIOK3 (human) (UniProt O14730); experiment: KINOMEscan competition binding; settings: compound 10.0 µM
[6] = target: FLT4 (human) (UniProt P35916); experiment: KINOMEscan competition binding; settings: compound 10.0 µM
[7] = target: DAPK2 (human) (UniProt Q9UIK4); experiment: KINOMEscan competition binding; settings: compound 10.0 µM
[8] = target: TGFBR2 (human) (UniProt P37173); experiment: KINOMEscan competition binding; settings: compound 10.0 µM
[9] = target: GAK (human) (UniProt O14976); experiment: KINOMEscan competition binding; settings: compound 10.0 µM
[10] = target: CSNK2A1 (human) (UniProt P68400); experiment: KINOMEscan competition binding; settings: compound 10.0 µM
[11] = target: CDK16 (human) (UniProt Q00536); experiment: KINOMEscan competition binding; settings: compound 10.0 µM
[12] = target: STK3 (human) (UniProt Q13188); experiment: KINOMEscan competition binding; settings: compound 10.0 µM
[13] = target: MAPK10 (human) (UniProt P53779); experiment: KINOMEscan competition binding; settings: compound 10.0 µM
[14] = target: ALK (human) (UniProt Q9UM73); experiment: KINOMEscan competition binding; settings: compound 10.0 µM
[15] = target: STK17B (human) (UniProt O94768); experiment: KINOMEscan competition binding; settings: compound 10.0 µM
[16] = target: SRPK3 (human) (UniProt Q9UPE1); experiment: KINOMEscan competition binding; settings: compound 10.0 µM
[17] = target: PIM3 (human) (UniProt Q86V86); experiment: KINOMEscan competition binding; settings: compound 10.0 µM
[18] = target: PLK4 (human) (UniProt O00444); experiment: KINOMEscan competition binding; settings: compound 10.0 µM
[19] = target: PIM2 (human) (UniProt Q9P1W9); experiment: KINOMEscan competition binding; settings: compound 10.0 µM
[20] = target: NEK6 (human) (UniProt Q9HC98); experiment: KINOMEscan competition binding; settings: compound 10.0 µM
[21] = target: DAPK3 (human) (UniProt O43293); experiment: KINOMEscan competition binding; settings: compound 10.0 µM
[22] = target: MAPK14 (human) (UniProt Q16539); experiment: KINOMEscan competition binding; settings: compound 10.0 µM
[23] = target: PIM1 (human) (UniProt P11309); experiment: KINOMEscan competition binding; settings: compound 10.0 µM
[24] = target: MERTK (human) (UniProt Q12866); experiment: KINOMEscan competition binding; settings: compound 10.0 µM
[25] = target: AXL (human) (UniProt P30530); experiment: KINOMEscan competition binding; settings: compound 10.0 µM
[26] = target: HIPK1 (human) (UniProt Q86Z02); experiment: KINOMEscan competition binding; settings: compound 10.0 µM
[27] = target: NEK7 (human) (UniProt Q8TDX7); experiment: KINOMEscan competition binding; settings: compound 10.0 µM
[28] = target: AURKC (human) (UniProt Q9UQB9); experiment: KINOMEscan competition binding; settings: compound 10.0 µM
[29] = target: MAPK8 (human) (UniProt P45983); experiment: KINOMEscan competition binding; settings: compound 10.0 µM
[30] = tested on: FLT3 (human), P36888 [D835H]; experiment: KINOMEscan competition binding; settings: compound 10.0 µM
[31] = target: TYK2 JH2 pseudokinase (human) (UniProt P29597); experiment: KINOMEscan competition binding; settings: compound 10.0 µM
[32] = target: SRPK1 (human) (UniProt Q96SB4); experiment: KINOMEscan competition binding; settings: compound 10.0 µM
[33] = target: STK17A (human) (UniProt Q9UEE5); experiment: KINOMEscan competition binding; settings: compound 10.0 µM
STK17A (human), sequence (Q9UEE5 whole entry, looked up): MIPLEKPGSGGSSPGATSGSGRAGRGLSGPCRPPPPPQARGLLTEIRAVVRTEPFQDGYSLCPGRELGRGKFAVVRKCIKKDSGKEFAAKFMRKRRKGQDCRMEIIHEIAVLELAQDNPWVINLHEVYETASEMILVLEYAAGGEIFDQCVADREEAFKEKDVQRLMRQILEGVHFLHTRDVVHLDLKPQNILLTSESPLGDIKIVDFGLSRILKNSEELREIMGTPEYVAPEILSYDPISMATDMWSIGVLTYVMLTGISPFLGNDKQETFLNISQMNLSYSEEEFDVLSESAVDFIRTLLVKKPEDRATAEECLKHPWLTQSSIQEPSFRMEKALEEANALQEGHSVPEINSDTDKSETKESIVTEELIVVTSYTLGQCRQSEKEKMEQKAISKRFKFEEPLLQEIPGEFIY

PIM1 (human), sequence (P11309 whole entry, looked up): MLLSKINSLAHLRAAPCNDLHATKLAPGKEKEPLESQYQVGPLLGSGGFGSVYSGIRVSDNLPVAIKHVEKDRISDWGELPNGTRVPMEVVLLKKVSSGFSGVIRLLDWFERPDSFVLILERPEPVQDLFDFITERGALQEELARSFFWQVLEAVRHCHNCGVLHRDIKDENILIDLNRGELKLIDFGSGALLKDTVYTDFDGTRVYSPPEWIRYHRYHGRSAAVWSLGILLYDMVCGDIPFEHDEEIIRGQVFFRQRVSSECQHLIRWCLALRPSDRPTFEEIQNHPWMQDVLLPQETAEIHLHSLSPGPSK
PIM2 (human), sequence (Q9P1W9 whole entry, looked up): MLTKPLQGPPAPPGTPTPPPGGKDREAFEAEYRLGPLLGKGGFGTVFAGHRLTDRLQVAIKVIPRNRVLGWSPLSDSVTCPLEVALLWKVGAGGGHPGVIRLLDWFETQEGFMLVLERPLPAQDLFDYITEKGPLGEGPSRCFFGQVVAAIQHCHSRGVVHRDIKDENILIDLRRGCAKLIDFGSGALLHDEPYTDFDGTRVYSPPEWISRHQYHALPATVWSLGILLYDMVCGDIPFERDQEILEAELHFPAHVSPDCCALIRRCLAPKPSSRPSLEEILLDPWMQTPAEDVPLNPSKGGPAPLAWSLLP
MERTK (human), sequence (Q12866 whole entry, looked up): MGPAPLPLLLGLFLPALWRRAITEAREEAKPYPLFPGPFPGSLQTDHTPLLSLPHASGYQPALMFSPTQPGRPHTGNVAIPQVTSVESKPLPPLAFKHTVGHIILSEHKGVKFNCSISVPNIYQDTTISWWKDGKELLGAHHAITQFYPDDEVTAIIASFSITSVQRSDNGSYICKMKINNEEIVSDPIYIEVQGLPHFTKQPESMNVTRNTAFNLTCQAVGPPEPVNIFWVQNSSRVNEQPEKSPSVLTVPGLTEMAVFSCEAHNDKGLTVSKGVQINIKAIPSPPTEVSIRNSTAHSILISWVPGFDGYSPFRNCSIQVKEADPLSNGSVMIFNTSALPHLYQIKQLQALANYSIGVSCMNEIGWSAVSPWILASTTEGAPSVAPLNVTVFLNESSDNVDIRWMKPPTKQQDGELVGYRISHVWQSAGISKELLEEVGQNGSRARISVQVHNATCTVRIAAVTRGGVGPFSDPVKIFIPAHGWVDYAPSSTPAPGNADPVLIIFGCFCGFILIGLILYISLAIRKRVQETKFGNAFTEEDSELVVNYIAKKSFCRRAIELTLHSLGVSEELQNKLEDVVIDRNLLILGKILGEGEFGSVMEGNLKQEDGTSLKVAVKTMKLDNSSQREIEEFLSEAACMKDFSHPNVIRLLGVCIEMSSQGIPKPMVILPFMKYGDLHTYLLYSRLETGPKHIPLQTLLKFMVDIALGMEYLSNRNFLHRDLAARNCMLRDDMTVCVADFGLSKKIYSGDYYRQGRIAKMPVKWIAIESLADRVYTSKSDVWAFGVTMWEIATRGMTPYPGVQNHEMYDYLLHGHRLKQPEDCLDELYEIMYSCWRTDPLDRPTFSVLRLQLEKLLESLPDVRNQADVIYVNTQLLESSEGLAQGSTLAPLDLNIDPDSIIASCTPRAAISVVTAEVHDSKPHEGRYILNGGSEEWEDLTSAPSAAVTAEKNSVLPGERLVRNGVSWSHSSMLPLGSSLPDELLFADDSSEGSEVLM
ALK (human), sequence (Q9UM73 whole entry, looked up): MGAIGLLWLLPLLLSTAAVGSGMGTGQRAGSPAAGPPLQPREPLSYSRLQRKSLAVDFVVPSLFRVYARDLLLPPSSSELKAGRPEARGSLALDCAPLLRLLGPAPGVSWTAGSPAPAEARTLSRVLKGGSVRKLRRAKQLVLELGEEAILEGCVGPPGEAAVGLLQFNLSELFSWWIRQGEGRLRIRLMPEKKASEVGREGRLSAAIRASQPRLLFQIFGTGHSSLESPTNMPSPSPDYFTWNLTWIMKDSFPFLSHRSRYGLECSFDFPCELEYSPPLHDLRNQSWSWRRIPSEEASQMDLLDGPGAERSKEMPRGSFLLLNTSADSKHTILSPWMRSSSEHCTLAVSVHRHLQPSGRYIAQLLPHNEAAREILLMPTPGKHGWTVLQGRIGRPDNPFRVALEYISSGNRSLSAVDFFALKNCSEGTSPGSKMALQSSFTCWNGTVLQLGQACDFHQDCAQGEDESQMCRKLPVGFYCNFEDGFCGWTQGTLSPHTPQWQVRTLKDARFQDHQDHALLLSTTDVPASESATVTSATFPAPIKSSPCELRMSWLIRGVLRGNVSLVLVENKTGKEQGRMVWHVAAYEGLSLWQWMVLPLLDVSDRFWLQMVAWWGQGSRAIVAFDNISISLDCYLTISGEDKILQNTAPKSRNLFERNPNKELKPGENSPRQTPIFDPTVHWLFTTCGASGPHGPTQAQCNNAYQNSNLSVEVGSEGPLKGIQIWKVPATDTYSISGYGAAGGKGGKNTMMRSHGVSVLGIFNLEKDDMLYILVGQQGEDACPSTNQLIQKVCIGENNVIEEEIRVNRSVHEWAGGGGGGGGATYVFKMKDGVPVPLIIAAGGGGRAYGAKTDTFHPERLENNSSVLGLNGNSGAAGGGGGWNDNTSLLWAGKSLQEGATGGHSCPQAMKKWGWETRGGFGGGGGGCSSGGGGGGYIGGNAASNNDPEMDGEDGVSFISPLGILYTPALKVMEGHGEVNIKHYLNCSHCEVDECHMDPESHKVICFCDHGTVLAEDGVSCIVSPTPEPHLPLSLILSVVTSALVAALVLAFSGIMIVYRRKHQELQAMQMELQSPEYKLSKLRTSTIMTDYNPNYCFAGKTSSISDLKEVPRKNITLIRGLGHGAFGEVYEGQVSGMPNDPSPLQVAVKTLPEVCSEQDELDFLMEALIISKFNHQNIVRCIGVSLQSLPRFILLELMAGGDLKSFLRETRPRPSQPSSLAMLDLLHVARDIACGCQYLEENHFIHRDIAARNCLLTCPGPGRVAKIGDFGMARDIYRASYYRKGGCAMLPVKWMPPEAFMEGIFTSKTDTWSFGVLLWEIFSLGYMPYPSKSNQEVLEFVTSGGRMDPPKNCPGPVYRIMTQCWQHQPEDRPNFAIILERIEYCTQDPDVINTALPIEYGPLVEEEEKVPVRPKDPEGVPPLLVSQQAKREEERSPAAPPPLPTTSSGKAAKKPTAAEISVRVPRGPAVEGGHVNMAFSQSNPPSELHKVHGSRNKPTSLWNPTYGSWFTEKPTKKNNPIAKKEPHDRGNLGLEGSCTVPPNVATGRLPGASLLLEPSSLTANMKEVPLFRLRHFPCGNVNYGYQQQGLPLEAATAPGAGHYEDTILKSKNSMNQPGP
MAPK14 (human), sequence (Q16539 whole entry, looked up): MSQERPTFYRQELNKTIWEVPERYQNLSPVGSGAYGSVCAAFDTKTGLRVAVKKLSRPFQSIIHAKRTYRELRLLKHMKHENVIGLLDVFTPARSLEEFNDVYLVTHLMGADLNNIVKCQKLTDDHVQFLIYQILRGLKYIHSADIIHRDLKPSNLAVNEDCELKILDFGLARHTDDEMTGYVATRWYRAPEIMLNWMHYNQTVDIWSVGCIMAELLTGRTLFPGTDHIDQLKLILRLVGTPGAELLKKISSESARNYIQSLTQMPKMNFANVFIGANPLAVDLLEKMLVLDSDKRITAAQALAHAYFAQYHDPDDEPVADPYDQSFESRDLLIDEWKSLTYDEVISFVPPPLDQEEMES
DAPK2 (human), sequence (Q9UIK4 whole entry, looked up): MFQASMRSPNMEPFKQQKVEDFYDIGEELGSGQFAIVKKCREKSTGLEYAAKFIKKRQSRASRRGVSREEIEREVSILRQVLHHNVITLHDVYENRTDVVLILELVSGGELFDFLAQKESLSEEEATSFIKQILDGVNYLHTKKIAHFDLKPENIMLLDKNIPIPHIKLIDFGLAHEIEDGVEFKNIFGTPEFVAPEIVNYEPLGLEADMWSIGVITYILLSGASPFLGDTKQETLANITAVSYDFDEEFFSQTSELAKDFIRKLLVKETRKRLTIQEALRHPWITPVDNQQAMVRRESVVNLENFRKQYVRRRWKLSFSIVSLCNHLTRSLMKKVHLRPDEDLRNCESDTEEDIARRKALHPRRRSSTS
RIOK3 (human), sequence (O14730 whole entry, looked up): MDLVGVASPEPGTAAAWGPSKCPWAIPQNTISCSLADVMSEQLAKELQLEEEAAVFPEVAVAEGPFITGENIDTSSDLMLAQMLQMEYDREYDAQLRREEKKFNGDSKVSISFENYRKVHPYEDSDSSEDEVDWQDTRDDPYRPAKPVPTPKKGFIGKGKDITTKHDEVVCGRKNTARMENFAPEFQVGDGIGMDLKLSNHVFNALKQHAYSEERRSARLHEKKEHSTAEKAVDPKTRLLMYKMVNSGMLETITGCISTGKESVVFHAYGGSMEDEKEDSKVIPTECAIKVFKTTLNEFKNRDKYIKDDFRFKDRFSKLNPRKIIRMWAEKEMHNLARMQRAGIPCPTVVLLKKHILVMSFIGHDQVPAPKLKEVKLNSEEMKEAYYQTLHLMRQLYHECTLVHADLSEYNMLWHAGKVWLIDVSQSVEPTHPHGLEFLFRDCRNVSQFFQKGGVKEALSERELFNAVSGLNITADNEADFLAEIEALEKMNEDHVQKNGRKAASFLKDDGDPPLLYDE

O=C1NC(=S)S/C1=C\c1ccc(-c2cccc3ccccc23)o1
IC50 [1]: 1.1 µM | IC50 [2]: 1.62 µM | kinase still bound, per cent of control [3]: 9.8% | kinase still bound, per cent of control [4]: 12% | kinase still bound, per cent of control [5]: 30% | kinase still bound, per cent of control [6]: 25% | kinase still bound, per cent of control [7]: 17% | kinase still bound, per cent of control [8]: 14% | kinase still bound, per cent of control [9]: 28% | kinase still bound, per cent of control [10]: 8% | kinase still bound, per cent of control [11]: 1.4% | kinase still bound, per cent of control [12]: 34% | kinase still bound, per cent of control [13]: 30% | kinase still bound, per cent of control [14]: 19% | kinase still bound, per cent of control [15]: 3.6% | kinase still bound, per cent of control [16]: 33% | kinase still bound, per cent of control [17]: 2.6% | kinase still bound, per cent of control [18]: 1.6% | kinase still bound, per cent of control [19]: 0.8% | kinase still bound, per cent of control [20]: 26% | kinase still bound, per cent of control [21]: 22% | kinase still bound, per cent of control [22]: 33% | kinase still bound, per cent of control [23]: 3% | kinase still bound, per cent of control [24]: 20% | kinase still bound, per cent of control [25]: 29% | kinase still bound, per cent of control [26]: 3.7% | kinase still bound, per cent of control [27]: 27% | kinase still bound, per cent of control [28]: 27% | kinase still bound, per cent of control [29]: 30% | kinase still bound, per cent of control [30]: 34% | kinase still bound, per cent of control [31]: 17% | kinase still bound, per cent of control [32]: 32% | kinase still bound, per cent of control [33]: 1.8%
